According to ChEMBL document CHEMBL4819157, “Synthesis and biological evaluation of novel ligustrazine-chalcone derivatives as potential anti-triple negative breast cancer agents” (Bioorg Med Chem Lett, 2021):
Active and inactive are the calls of the source. No cut-off for these calls is given here.

What was measured:
A549 = assay: Antiproliferation activity against human A549 cells assessed as reduction in cell viability after 72 hrs by CCK8 assay; format: functional, cell-based; conditions: A549, 72 h
HepG2 = assay: Antiproliferation activity against human HepG2 cells assessed as reduction in cell viability after 72 hrs by CCK8 assay; format: functional, cell-based; conditions: HepG2, 72 h
MDA-MB-231 [1] = assay: Antiproliferation activity against human MDA-MB-231 cells assessed as reduction in cell viability after 72 hrs by CCK8 assay; format: functional, cell-based; conditions: MDA-MB-231, 72 h
MCF7 [2] = assay: Antiproliferation activity against human MCF-7 cells assessed as reduction in cell viability after 72 hrs by CCK8 assay; format: functional, cell-based; conditions: MCF7, 72 h
MDA-MB-231 [3] = assay: Inhibition of cell migration in human MDA-MB-231 cells 0.5 to 2 times of IC50 incubated up to 48 hrs by scratch wound healing assay; format: functional, cell-based; conditions: time hrs <=48
MDA-MB-231 [4] = assay: Inhibition of colony formation in human MDA-MB-231 cells at IC50 concentration upto 72 hrs by plate colony counting assay; format: functional, cell-based; conditions: time hrs <=72, TDE = time-dependent effect
MCF-10A = assay: Cytotoxicity against human MCF-10A cells assessed as reduction in cell viability after 72 hrs by CCK8 assay; format: cell-based
MCF7 [5] = assay: Inhibition of cell migration in human MCF-7 cells 0.5 to 2 times of IC50 incubated up to 48 hrs by scratch wound healing assay; format: functional, cell-based; conditions: time hrs <=48
MCF7 [6] = assay: Inhibition of colony formation in human MCF-7 cells at 0.25 to 2 times of IC50 concentration incubated for 48 hrs by plate colony counting assay; format: functional, cell-based
MCF7 [7] = assay: Inhibition of colony formation in human MCF-7 cells at IC50 concentration upto 72 hrs by plate colony counting assay; format: functional, cell-based; conditions: time hrs <=72, TDE = time-dependent effect
MDA-MB-231 [8] = assay: Inhibition of colony formation in human MDA-MB-231 cells at 0.25 to 2 times of IC50 concentration incubated for 48 hrs by plate colony counting assay; format: functional, cell-based
HUVEC = assay: Cytotoxicity against human HUVEC cells assessed as reduction in cell viability after 72 hrs by CCK8 assay; format: cell-based
MDA-MB-231 [9] = assay: Induction of apoptosis in human MDA-MB-231 cells assessed as late apoptotic cells at 2 times of IC50 by Annexin V-FITC/PI double staining based flow cytometry analysis (reference value: 0.00%); format: functional
[10] = Antitumour activity against human MDA-MB-468 cells xenografted in mouse assessed as reduction in Ki67 positive cells at 75 mg/kg, by immunohistochemical analysis (reference value: 76.50 +/- 5.28%); format: functional, MDA-MB-231; parameters: scale not given: the % may be the effect or the level left
MDA-MB-231 [11] = assay: Induction of apoptosis in human MDA-MB-231 cells assessed as late apoptotic cells at IC50 by Annexin V-FITC/PI double staining based flow cytometry analysis (reference value: 0.00%); format: functional
[12] = Antitumour activity against human MDA-MB-468 cells xenografted in mouse assessed as reduction in Ki67 positive cells at 25 mg/kg, by immunohistochemical analysis (reference value: 76.50 +/- 5.28%); format: functional, MDA-MB-231; parameters: scale not given: the % may be the effect or the level left
MDA-MB-231 [13] = assay: Induction of apoptosis in human MDA-MB-231 cells assessed as viable cells at 0.5 times of IC50 by Annexin V-FITC/PI double staining based flow cytometry analysis (reference value: 93.34%); format: functional
MDA-MB-231 [14] = assay: Induction of cell cycle arrest in human […] cells assessed as increase in accumulation of cells at G0/G1 phase at 0.5 to 2 times of IC50 after 48 hrs by propidium iodide staining-based flow cytometric analysis; format: functional
MDA-MB-231 [15] = assay: Induction of apoptosis in human MDA-MB-231 cells assessed as early apoptotic cells at IC50 by Annexin V-FITC/PI double staining based flow cytometry analysis (reference value: 6.64%); format: functional
MDA-MB-231 [16] = assay: Induction of cell cycle arrest in human […] cells assessed as decrease in accumulation of cells at S phase at 0.5 to 2 times of IC50 after 48 hrs by propidium iodide staining-based flow cytometric analysis; format: functional
MDA-MB-231 [17] = assay: Induction of apoptosis in human MDA-MB-231 cells assessed as late apoptotic cells at 0.5 times of IC50 by Annexin V-FITC/PI double staining based flow cytometry analysis (reference value: 0.00%); format: functional
MDA-MB-231 [18] = assay: Induction of apoptosis in human MDA-MB-231 cells assessed as necrotic cells at 2 times of IC50 by Annexin V-FITC/PI double staining based flow cytometry analysis (reference value: 0.02%); format: functional
MDA-MB-231 [19] = assay: Induction of apoptosis in human MDA-MB-231 cells assessed as necrotic cells at IC50 by Annexin V-FITC/PI double staining based flow cytometry analysis (reference value: 0.02%); format: functional
[20] = Antitumour activity against human MDA-MB-468 cells xenografted in mouse assessed as reduction in Ki67 positive cells at 50 mg/kg, by immunohistochemical analysis (reference value: 76.50 +/- 5.28%); format: functional, MDA-MB-231; parameters: scale not given: the % may be the effect or the level left
MDA-MB-231 [21] = assay: Induction of apoptosis in human MDA-MB-231 cells assessed as viable cells at 2 times of IC50 by Annexin V-FITC/PI double staining based flow cytometry analysis (reference value: 93.34%); format: functional
MDA-MB-231 [22] = assay: Induction of apoptosis in human MDA-MB-231 cells assessed as necrotic cells at 0.5 times of IC50 by Annexin V-FITC/PI double staining based flow cytometry analysis (reference value: 0.02%); format: functional
MDA-MB-231 [23] = assay: Induction of apoptosis in human MDA-MB-231 cells assessed as early apoptotic cells at 2 times of IC50 by Annexin V-FITC/PI double staining based flow cytometry analysis (reference value: 6.64%); format: functional
[24] = Toxicity in mouse xenografted with human MDA-MB-468 cells assessed as effect on body weight at 25 to 75 mg/kg; format: organism-based; conditions: in vivo, dose 25-75 mg/kg
MDA-MB-231 [25] = assay: Induction of apoptosis in human MDA-MB-231 cells assessed as early apoptotic cells at 0.5 times of IC50 by Annexin V-FITC/PI double staining based flow cytometry analysis (reference value: 6.64%); format: functional
MDA-MB-231 [26] = assay: Induction of apoptosis in human MDA-MB-231 cells assessed as viable cells at IC50 by Annexin V-FITC/PI double staining based flow cytometry analysis (reference value: 93.34%); format: functional
MDA-MB-231 [27] = assay: Induction of cell cycle arrest in human […] cells assessed as decrease in accumulation of cells at G2/M phase at 0.5 to 2 times of IC50 after 48 hrs by propidium iodide staining-based flow cytometric analysis; format: functional

## Cc1ccc(C(=O)Nc2ccc(C(=O)/C=C/c3nc(C)c(C)nc3C)cc2)cc1
A549
  IC50: 9.99 µM
HepG2
  IC50: 5.45 µM
MDA-MB-231 [1]
  IC50: 1.78 µM
MCF7 [2]
  IC50: 1.18 µM

## Cc1nc(C)c(/C=C/C(=O)c2ccc(NC(=O)c3ccccc3F)cc2)nc1C
A549
  IC50: 7.39 µM
HepG2
  IC50: 2.04 µM
MDA-MB-231 [1]
  IC50: 1.98 µM
MCF7 [2]
  IC50: 1.27 µM

## Cc1nc(C)c(/C=C/C(=O)c2ccc(NC(=O)c3ccc(F)cc3F)cc2)nc1C
A549
  IC50: 2.45 µM
HepG2
  IC50: 2.99 µM
MDA-MB-231 [1]
  IC50: 1.77 µM
MCF7 [2]
  IC50: 1.61 µM

## COc1cc2nccc(Oc3ccc(NC(=O)C4(C(=O)Nc5ccc(F)cc5)CC4)cc3)c2cc1OC [CABOZANTINIB]
A549
  IC50: 15.2 µM
HepG2
  IC50: 15.6 µM
MDA-MB-231 [1]
  IC50: 19.7 µM
MCF7 [2]
  IC50: 14.3 µM

## Cc1nc(C)c(C)nc1C [LIGUSTRAZINE]
A549
  IC50: 36.5 µM
HepG2
  IC50: 38.2 µM
MDA-MB-231 [1]
  IC50: 20.4 µM
MCF7 [2]
  IC50: 29.9 µM

## COc1cccc(OC)c1C(=O)Nc1ccc(C(=O)/C=C/c2nc(C)c(C)nc2C)cc1
A549
  IC50: 8.47 µM
HepG2
  IC50: 3.38 µM
MDA-MB-231 [1]
  IC50: 3.85 µM
MCF7 [2]
  IC50: 2.47 µM

## Cc1nc(C)c(/C=C/C(=O)c2ccc(NC(=O)c3ccc(F)cc3)cc2)nc1C
MDA-MB-231 [3]
  inhibition: Dose-Dependent Effect
A549
  IC50: 4.48 µM
MDA-MB-231 [4]
  inhibition: Tde
MCF-10A
  IC50: 42.9 µM
MCF7 [5]
  inhibition: Dose-Dependent Effect
HepG2
  IC50: 2.25 µM
MCF7 [6]
  inhibition: Dose-Dependent Effect
MDA-MB-231 [1]
  IC50: 1.67 µM
MCF7 [2]
  IC50: 1.54 µM
MCF7 [7]
  inhibition: Tde
MDA-MB-231 [8]
  inhibition: Dose-Dependent Effect
HUVEC
  IC50: 32.7 µM

## COc1ccc(C(=O)Nc2ccc(C(=O)/C=C/c3nc(C)c(C)nc3C)cc2)cc1
MDA-MB-231 [9]
  Activity: 15.92%
[10]
  Activity: 8.95%
MDA-MB-231 [11]
  Activity: 8.62%
MDA-MB-231 [3]
  inhibition: Dose-Dependent Effect
[12]
  Activity: 19.51%
A549
  IC50: 4.15 µM
MDA-MB-231 [4]
  inhibition: Tde
MDA-MB-231 [13]
  Activity: 72.66%
MDA-MB-231 [14]
  Activity: Active
MDA-MB-231 [15]
  Activity: 43.98%
MCF-10A
  IC50: 59.6 µM
MCF7 [5]
  inhibition: Dose-Dependent Effect
MDA-MB-231 [16]
  Activity: Active
HepG2
  IC50: 1.19 µM
MDA-MB-231 [17]
  Activity: 0.65%
MCF7 [6]
  inhibition: Dose-Dependent Effect
MDA-MB-231 [18]
  Activity: 2.15%
MDA-MB-231 [1]
  IC50: 1.6 µM
MDA-MB-231 [19]
  Activity: 2.89%
[20]
  Activity: 11.29%
MCF7 [2]
  IC50: 1.41 µM
MCF7 [7]
  inhibition: Tde
MDA-MB-231 [21]
  Activity: 30.97%
MDA-MB-231 [22]
  Activity: 1.54%
MDA-MB-231 [23]
  Activity: 50.96%
MDA-MB-231 [8]
  inhibition: Dose-Dependent Effect
[24]
  Activity: Non-Toxic
HUVEC
  IC50: 29.2 µM
MDA-MB-231 [25]
  Activity: 25.14%
MDA-MB-231 [26]
  Activity: 44.51%
MDA-MB-231 [27]
  Activity: Active

## COc1ccc(C(=O)Nc2ccc(C(=O)/C=C/c3nc(C)c(C)nc3C)cc2)cc1OC
A549
  IC50: 5.06 µM
HepG2
  IC50: 2.56 µM
MDA-MB-231 [1]
  IC50: 3.36 µM
MCF7 [2]
  IC50: 1.66 µM

## O=c1[nH]cc(F)c(=O)[nH]1 [FLUOROURACIL]
A549
  IC50: 2.53 µM
HepG2
  IC50: 2.98 µM
MDA-MB-231 [1]
  IC50: 5.85 µM
MCF7 [2]
  IC50: 5.44 µM

## Cc1nc(C)c(/C=C/C(=O)c2ccc(NC(=O)c3ccccc3)cc2)nc1C
A549
  IC50: 7.27 µM
HepG2
  IC50: 1.31 µM
MDA-MB-231 [1]
  IC50: 1.84 µM
MCF7 [2]
  IC50: 0.99 µM

## O=C(/C=C/c1ccc(O)cc1)c1ccc(O)cc1O [ISOLIQUIRITIGENIN]
A549
  IC50: 52.6 µM
HepG2
  IC50: 27.7 µM
MDA-MB-231 [1]
  IC50: 10.9 µM
MCF7 [2]
  IC50: 17.7 µM

## COc1cc(OC)cc(C(=O)Nc2ccc(C(=O)/C=C/c3nc(C)c(C)nc3C)cc2)c1
A549
  IC50: 10.2 µM
HepG2
  IC50: 11 µM
MDA-MB-231 [1]
  IC50: 11.6 µM
MCF7 [2]
  IC50: 6.27 µM

## COc1cc(C(=O)Nc2ccc(C(=O)/C=C/c3nc(C)c(C)nc3C)cc2)cc(OC)c1OC
A549
  IC50: 7.35 µM
HepG2
  IC50: 4.86 µM
MDA-MB-231 [1]
  IC50: 4.74 µM
MCF7 [2]
  IC50: 2.76 µM
